Data on 26 compounds can be found in patent US10501452B2, “Lactam compound derivative and application thereof” (NHWA PHARMA. CORPORATION, priority 2015, dated 2019).

Each structure is given as a SMILES string. Where two headings read alike, the source gives them in different places. Bounds are passed on as bounds.

One assay deals with D2 (Rattus norvegicus (Rat), UniProt P61169). The assay can be described thus: D2 receptor binding assay (3H-Spiperone).
A further assay addresses 5-HT1A (Rattus norvegicus (Rat), UniProt P19327). The assay can be described thus: 5-HT1A receptor binding assay (3H-8-OH-DPAT). Particulars: rat cortex membrane, 3H-8-OH-DPAT. The protocol:
Rats were decapitated. […] Incubation at 37° C. was conducted for 10 min. […] Centrifugation was conducted and repeated 3 times.
(§1) Materials for the Receptor Binding Assay

In the next assay the target is Histamine H1 receptor (Cavia porcellus (Guinea pig), UniProt P31389). The assay can be described thus: Histamine H1 receptor binding assay (3H-pyrilamine). The note with it: guinea pig cerebellum membrane, 3H-pyrilamine. The protocol: Preparation of Histamine H1 Receptor Membrane
Guinea pigs were decapitated. […] Vortex mixer was used for blending. Centrifugation was conducted at 48000 g, 4° C. for 10 min. The supernatant was discarded to give pellets, and buffer was added again for washing. Centrifugation was conducted and repeated 3 times.
as §1
(2) 100 μL of membrane preparation was added into each reaction tube.

In another assay the target is 5-HT7 receptor (Rattus norvegicus (Rat), UniProt P32305). The assay can be described thus: 5-HT7 receptor binding assay ([3H]-5-CT). Particulars: rat hypothalamus membrane, [3H]-5-CT. The protocol: Adult SD rats were decapitated. […] Centrifugation was conducted (repeated 3 times).
as §1

The next assay deals with 5-HT2A (Rattus norvegicus (Rat), UniProt P14842). The assay can be described thus: 5-HT2A receptor binding assay ([3H]-Ketanserin).
Setting [1] is: read-out: Ki (nM) D2, rat striatum membrane, 3H-Spiperone.
Setting [2] is: read-out: Ki (nM) 5-HT2A, rat cortex membrane, [3H]-Ketanserin.

Sequence of Histamine H1 receptor (P31389 whole entry): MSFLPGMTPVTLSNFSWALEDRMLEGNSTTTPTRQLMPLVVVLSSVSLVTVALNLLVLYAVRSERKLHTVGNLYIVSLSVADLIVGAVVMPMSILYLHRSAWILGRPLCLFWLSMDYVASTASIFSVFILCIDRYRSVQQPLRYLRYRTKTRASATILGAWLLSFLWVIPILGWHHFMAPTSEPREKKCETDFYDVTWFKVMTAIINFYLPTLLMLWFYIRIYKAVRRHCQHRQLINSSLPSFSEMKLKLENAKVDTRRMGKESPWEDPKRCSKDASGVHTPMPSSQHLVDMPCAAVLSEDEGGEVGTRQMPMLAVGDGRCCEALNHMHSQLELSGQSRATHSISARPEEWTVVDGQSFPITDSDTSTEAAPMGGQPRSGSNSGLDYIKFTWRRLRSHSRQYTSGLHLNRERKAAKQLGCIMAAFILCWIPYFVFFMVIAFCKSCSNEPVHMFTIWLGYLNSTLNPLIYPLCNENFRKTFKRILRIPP
Sequence of 5-HT2A (P14842 whole entry): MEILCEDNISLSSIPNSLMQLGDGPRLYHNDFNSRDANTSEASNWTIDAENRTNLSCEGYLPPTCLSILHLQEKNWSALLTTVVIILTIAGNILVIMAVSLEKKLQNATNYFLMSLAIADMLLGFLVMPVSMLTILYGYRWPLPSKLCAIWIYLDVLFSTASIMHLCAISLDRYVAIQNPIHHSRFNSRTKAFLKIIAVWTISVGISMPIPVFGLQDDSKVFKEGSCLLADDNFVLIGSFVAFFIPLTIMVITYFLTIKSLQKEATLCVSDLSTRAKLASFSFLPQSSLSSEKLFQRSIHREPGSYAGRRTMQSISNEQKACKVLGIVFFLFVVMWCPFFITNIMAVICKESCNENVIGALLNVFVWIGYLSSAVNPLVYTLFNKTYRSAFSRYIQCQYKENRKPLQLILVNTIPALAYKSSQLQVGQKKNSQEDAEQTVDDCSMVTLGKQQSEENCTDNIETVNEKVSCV
Sequence of 5-HT7 receptor (P32305 whole entry): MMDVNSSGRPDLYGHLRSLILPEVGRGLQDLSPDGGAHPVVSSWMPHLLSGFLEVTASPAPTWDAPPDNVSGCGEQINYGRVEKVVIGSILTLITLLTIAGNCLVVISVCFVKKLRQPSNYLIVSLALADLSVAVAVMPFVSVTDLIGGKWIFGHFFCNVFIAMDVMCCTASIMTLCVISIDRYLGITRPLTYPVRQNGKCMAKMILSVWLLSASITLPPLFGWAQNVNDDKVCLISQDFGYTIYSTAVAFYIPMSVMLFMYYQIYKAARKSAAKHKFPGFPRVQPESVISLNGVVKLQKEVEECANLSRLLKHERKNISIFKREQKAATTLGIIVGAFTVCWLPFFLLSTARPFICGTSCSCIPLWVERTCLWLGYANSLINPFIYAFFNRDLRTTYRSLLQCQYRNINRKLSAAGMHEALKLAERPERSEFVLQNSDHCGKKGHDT
Sequence of 5-HT1A (P19327 whole entry): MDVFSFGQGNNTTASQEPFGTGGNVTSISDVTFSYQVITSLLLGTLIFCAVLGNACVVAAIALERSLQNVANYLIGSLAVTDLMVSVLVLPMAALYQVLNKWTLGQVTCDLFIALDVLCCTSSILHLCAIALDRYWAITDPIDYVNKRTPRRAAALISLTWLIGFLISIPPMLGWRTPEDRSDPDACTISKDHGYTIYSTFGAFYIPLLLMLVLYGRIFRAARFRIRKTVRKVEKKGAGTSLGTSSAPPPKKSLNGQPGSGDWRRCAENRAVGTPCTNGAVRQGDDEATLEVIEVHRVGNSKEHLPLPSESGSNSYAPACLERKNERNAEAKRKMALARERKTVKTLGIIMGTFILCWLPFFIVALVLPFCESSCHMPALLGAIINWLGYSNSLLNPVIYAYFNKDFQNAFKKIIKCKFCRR
Sequence of D2 (P61169 whole entry): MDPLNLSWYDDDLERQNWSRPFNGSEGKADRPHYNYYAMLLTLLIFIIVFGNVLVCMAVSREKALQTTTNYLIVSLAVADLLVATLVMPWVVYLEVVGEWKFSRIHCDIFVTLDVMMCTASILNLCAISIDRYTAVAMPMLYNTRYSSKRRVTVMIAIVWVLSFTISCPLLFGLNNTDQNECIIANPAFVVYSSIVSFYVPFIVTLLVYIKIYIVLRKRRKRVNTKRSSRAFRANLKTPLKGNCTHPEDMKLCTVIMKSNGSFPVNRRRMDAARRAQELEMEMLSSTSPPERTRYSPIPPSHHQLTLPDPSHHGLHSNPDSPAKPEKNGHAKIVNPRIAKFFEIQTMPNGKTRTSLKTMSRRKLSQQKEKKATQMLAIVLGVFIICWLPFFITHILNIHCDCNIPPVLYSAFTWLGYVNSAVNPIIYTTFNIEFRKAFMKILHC
Protocol for 5-HT2A: Rats were decapitated. Cortex of brain was rapidly taken on ice, and 3 ml of buffer (0.05 M Tris-HCl buffer: 6.05 g of Tris was dissolved in 1000 ml of double-distilled water, and concentrated HCl was used to adjust to pH 7.5) was added, homogenization was conducted, and then 5 ml of buffer was added. Incubation was conducted at 37° C. for 10 min, the weight of the tubes were adjusted using a balance after incubation. Centrifugation was conducted at 12000 rpm, 4° C. for 20 min, the supernatant was discarded, and 3 ml of buffer was added. Vortex mixer was used for blending, and then 5 ml of buffer was added. Centrifugation was conducted (repeated 3 times). After the centrifugation, the supernatant was discarded, and the pellets were stored at −80° C. for future use.
(1) The prepared membrane was applied with buffer, and homogenizer was used for evenly dispersing. 15 tubes were mixed into a 100 ml container, and appropriate amount of buffer was added to give 50 ml of membrane suspension, which was reserved for future use.
(§2) (2) 100 μL of membrane preparation and 100 μL of buffer were added into each reaction tube.
(3) 100 μL of buffer was added into the total binding tube (TB), 100 μL of Methysergide (final concentration 10^−5M) was added into the nonspecific binding tube (NB), 100 μL of the test compound (final concentration 10^−5M) was added into the specific binding tube (SB) of each test compound.
(5) Each of the reaction tubes was incubated at 37° C. for 15 min. After the reaction was completed, the bound ligands were rapidly filtered under reduced pressure, and sufficiently washed with ice-chilled assay buffer. The filter was taken out and put into a 3 ml scintillation vial, and 2 ml of toluene scintillation cocktail was added and blended.
(6) The scintillation vial were put into Liquid Scintillation Counter for counting. Inhibition rate(I%)=(Total binding tube cpm−compound cpm)/(Total binding tube cpm−nonspecific binding tube cpm)×100%
Protocol for D2: Rats were decapitated. Striatum of brain was rapidly taken on ice, 3 ml of buffer (0.05 M Tris-HCl buffer, containing NaCl 120 mM, KCl 5 mM, MgCl2 1 mM, CaCl2 1 mM) was added, homogenization was conducted, and then 5 ml of buffer was then added. The weight of the homogenized tubes were adjusted using a balance, and centrifugation was conducted. The supernatant was discarded, and 3 ml of buffer was added. Vortex mixer was used for blending, and then 5 ml of buffer was added. Centrifugation was conducted and repeated 3 times. The supernatant was discarded after centrifugation was completed, and the pellets were stored at −80° C. for future use.
Beckman LS-6500 Multi-function Liquid Scintillation Counter was used.
(1) The prepared membrane was applied with appropriate amount of buffer, and homogenizer was used for evenly dispersing. 15 tubes were mixed into a 100 ml container, and appropriate amount of buffer was added to give 50 ml of membrane suspension, which was reserved for future use.
as §2
(3) 100 μL of buffer was added into the total binding tube (TB), 100 μL of Butaclamol (final concentration 10^−5M) was added into the nonspecific binding tube (NB), 100 μL of the test compound (final concentration 10^−5M) was added into the specific binding tube (SB) of each test compound.
(5) Each of the reaction tubes was incubated at 37° C. for 20 min. After the reaction was completed, the bound ligands were rapidly filtered under reduced pressure, and sufficiently washed with ice-chilled assay buffer. The filter was taken out and put into a 3 ml scintillation vial, and 2 ml of toluene scintillation cocktail was added and blended.
(6) The scintillation vials were put into Liquid Scintillation Counter for counting. Inhibition rate(I%)=(Total binding tube cpm−compound cpm)/(Total binding tube cpm−nonspecific binding tube cpm)×100%
Each assay for the compounds was conducted in duplicate for two individual tests.

With `CN1CCc2ccc(OCC(O)CN3CCC(c4noc5cc(F)ccc45)CC3)cc2C1=O` (stereo not drawn) [Compound 4, 7-(3-(4-(6-fluorobenzo[d]isoxazol-3-yl)piperidin-1-yl)-2-hydroxypropoxy)-2-methyl-3,4-dihydroisoquinolin-1(2H)-one], the Ki was 15.1 nM at D2 (setting [1]); 3.9 nM at 5-HT1A; over 2000 nM at Histamine H1 receptor; 10.2 nM on 5-HT7 receptor; 15.9 nM at 5-HT2A (setting [2]).
For the compound `CN1CCc2ccc(OCCCN3CCN(c4ccccn4)CC3)cc2C1=O` [Compound 23, 2-methyl-7-(3-(4-(pyridin-2-yl)piperazin-1-yl)propoxy)-3,4-dihydroisoquinolin-1(2H)-one], the results for the Ki at D2 (setting [1]), at 5-HT1A and at 5-HT2A (setting [2]) were over 2000 nM, over 2000 nM and 369 nM, respectively.
Turning to `O=C1NCCc2ccc(OCCCN3CCN(c4ccc5sccc5c4)CC3)cc21` [C, reference compound], the Ki on D2 was 35.2 nM; on Histamine H1 receptor, 138 nM; on 5-HT7 receptor it was 500 nM.
On to `CN1CCc2ccc(OCCCN3CCN(c4ccc5c(c4)OCO5)CC3)cc2C1=O` [Compound 13, 7-(3-(4-(benzo[d][1,3]dioxol-5-yl)piperazin-1-yl)propoxy)-2-methyl-3,4-dihydroisoquinolin-1 (2H)-one], for which the Ki on D2 (setting [1]) amounted to 235 nM; at 5-HT1A it was 12.8 nM; at 5-HT2A (setting [2]), 3.6 nM.
`Cc1nc2ccc(OCCCN3CCN(c4cccc(C(F)(F)F)c4)CC3)cc2c(=O)n1C` [Compound 31, 2,3-dimethyl-6-(3-(4-(3-(trifluoromethyl)phenyl)piperazin-1-yl)propoxy)quinazolin-4(3H)-one]: the Ki was 21.8 nM on D2 (setting [1]); 19 nM on 5-HT1A; over 2000 nM at Histamine H1 receptor; 8.3 nM at 5-HT7 receptor; 9.8 nM at 5-HT2A (setting [2]).
For `Cn1cnc2ccc(OCCCCN3CCN(c4ccccn4)CC3)cc2c1=O` [Compound 30, 3-methyl-6-(4-(4-(pyridin-2-yl)piperazin-1-yl)butoxy)quinazolin-4(3H)-one], the Ki at D2, on 5-HT1A and at 5-HT2A was over 2000 nM each time.
`COc1ccccc1N1CCN(CCCCOc2ccc3c(c2)C(=O)N(C)CC3)CC1` [Compound 2, 7-(4-(4-(2-methoxyphenyl)piperazin-1-yl)butoxy)-2-methyl-3,4-dihydroisoquinolin-1(2H)-one]: the Ki at D2 (setting [1]) is 120 nM; on 5-HT1A, 11.3 nM; on 5-HT2A (setting [2]) it was 36.8 nM.
For the compound `Cc1cc(OCCCN2CCC(c3noc4cc(F)ccc34)CC2)cc2c1CCN(C)C2=O` [Compound 8, 7-(3-(4-(6-fluorobenzo[d]isoxazol-3-yl)piperidin-1-yl)propoxy)-2,5-dimethyl-3,4-dihydroisoquinolin-1(2H)-one], the Ki was 8.7 nM on D2 (setting [1]); 2.8 nM at 5-HT1A; over 2000 nM on Histamine H1 receptor; 6.7 nM on 5-HT7 receptor; 2.4 nM at 5-HT2A (setting [2]).
Take `CN1CCc2ccc(OCCCN3CCN(c4cccc5sccc45)CC3)cc2C1=O` [B, reference compound]: the Ki at Histamine H1 receptor stood at 139 nM; at 5-HT7 receptor it was 579 nM.
`CN1CCc2ccc(OCCCN3CCN(c4ccc(F)cc4)CC3)cc2C1=O` [Compound 19, 7-(3-(4-(4-fluorophenyl)piperazin-1-yl)propoxy)-2-methyl-3,4-dihydroisoquinolin-1(2H)-one]: the inhibition constant (Ki) was 1650 nM at D2 (setting [1]), 746 nM at 5-HT1A and 688 nM at 5-HT2A (setting [2]).
The corresponding values for `CN1CCc2ccc(OCCCN3CCN(c4ccc(Cl)cc4)CC3)cc2C1=O` [Compound 17, 7-(3-(4-(4-chlorophenyl)piperazin-1-yl)propoxy)-2-methyl-3,4-dihydroisoquinolin-1(2H)-one] are over 2000 nM, over 2000 nM and over 2000 nM.
`CCN1CCc2ccc(OCCCN3CCC(c4noc5cc(F)ccc45)CC3)cc2C1=O` [Compound 7, 7-(3-(4-(6-fluorobenzo[d]isoxazol-3-yl)piperidin-1-yl)propoxy)-2-ethyl-3,4-dihydroisoquinolin-1(2H)-one]: the inhibitory constant (Ki) at D2 (setting [1]) is 13.1 nM; on 5-HT1A, 1.9 nM; at Histamine H1 receptor, over 2000 nM; on 5-HT7 receptor, 12.7 nM; on 5-HT2A (setting [2]), 0.9 nM.
The corresponding values for `CN1CCc2c(F)cc(OCCCN3CCC(c4noc5cc(F)ccc45)CC3)cc2C1=O` [Compound 9, 5-fluoro-7-(3-(4-(6-fluorobenzo[d]isoxazol-3-yl)piperidin-1-yl)propoxy)-2-methyl-3,4-dihydroisoquinolin-1(2H)-one] are 3.1 nM, 3.9 nM, over 2000 nM, 7.9 nM and 3.7 nM.
Regarding `CC1CN(C)C(=O)c2cc(OCCCN3CCC(c4noc5cc(F)ccc45)CC3)ccc21` (stereo not drawn) [Compound 10, 7-(3-(4-(6-fluorobenzo[d]isoxazol-3-yl)piperidin-1-yl)propoxy)-2,4-dimethyl-3,4-dihydroisoquinolin-1(2H)-one], the Ki on D2 (setting [1]) was 5.8 nM; on 5-HT1A, 4.6 nM; on Histamine H1 receptor, over 2000 nM; at 5-HT7 receptor it was 8.4 nM; on 5-HT2A (setting [2]) it was 12.9 nM.
Take `CN1CCc2ccc(OCCCCN3CCN(c4cccc(C(F)(F)F)c4)CC3)cc2C1=O` [Compound 3, 2-methyl-7-(4-(4-(3-(trifluoromethyl)phenyl)piperazin-1-yl)butoxy)-3,4-dihydroisoquinolin-1 (2H)-one]: the Ki is 17.2 nM on D2 (setting [1]), 11.8 nM at 5-HT1A, 23.6 nM at 5-HT7 receptor and 9.9 nM on 5-HT2A (setting [2]).
Take `CN1CCc2ccc(OCCCN3CCN(c4ccc5ccccc5n4)CC3)cc2C1=O` [Compound 15, 7-(3-(4-(quinolin-2-yl)piperazin-1-yl)propoxy)-2-methyl-3,4-dihydroisoquinolin-1(2H)-one]: the Ki on D2 (setting [1]) was 1990 nM; on 5-HT1A it was 157 nM; at 5-HT2A (setting [2]), 468 nM.
Regarding `O=C1NCCc2ccc(OCCCN3CCC(c4noc5cc(F)ccc45)CC3)cc21` [Compound 12, 7-(3-(4-(6-fluorobenzo[d]isoxazol-3-yl)piperidin-1-yl)propoxy)-3,4-dihydroisoquinolin-1(2H)-one], the Ki on D2 (setting [1]) is 10.4 nM; on 5-HT1A it was 19.3 nM; on Histamine H1 receptor, over 2000 nM; at 5-HT7 receptor, 8.9 nM; at 5-HT2A (setting [2]) it was 5.5 nM.
In the case of `CN1CCc2ccc(OCCCN3CCN(c4ccccc4Cl)CC3)cc2C1=O` [Compound 18, 7-(3-(4-(2-chlorophenyl)piperazin-1-yl)propoxy)-2-methyl-3,4-dihydroisoquinolin-1(2H)-one], the Ki on D2 (setting [1]), at 5-HT1A and on 5-HT2A (setting [2]) was over 2000 nM throughout.
On to `CN1CCc2ccc(OCCCN3CCN(c4ccccc4)CC3)cc2C1=O` [Compound 16, 2-methyl-7-(3-(4-phenylpiperazin-1-yl)propoxy)-3,4-dihydroisoquinolin-1(2H)-one], for which the Ki at D2 (setting [1]) is over 2000 nM; at 5-HT1A it was 569 nM; at 5-HT2A (setting [2]), 372 nM.
`COc1ccc(N2CCN(CCCOc3ccc4c(c3)C(=O)N(C)CC4)CC2)cc1` [Compound 21, 7-(3-(4-(4-methoxyphenyl)piperazin-1-yl)propoxy)-2-methyl-3,4-dihydroisoquinolin-1(2H)-one]: the Ki on D2 (setting [1]), on 5-HT1A and on 5-HT2A (setting [2]) was over 2000 nM in each case.
With `Cn1cnc2ccc(OCCCCN3CCc4ccccc4C3)cc2c1=O` [Compound 27, 6-(4-(3,4-dihydroisoquinolin-2(1H)-yl)butoxy)-3-methylquinazolin-4(3H)-one], the Ki at D2 (setting [1]) came out at 500 nM; on 5-HT1A, 57.9 nM; at 5-HT2A (setting [2]) it was 66.2 nM.
For the compound `Cn1cnc2ccc(OCCCCN3CCN(Cc4ccccc4)CC3)cc2c1=O` [Compound 26, 6-(4-(4-benzylpiperazin-1-yl)butoxy)-3-methylquinazolin-4(3H)-one], the Ki at D2 (setting [1]) was over 2000 nM; at 5-HT1A, 56.9 nM; at 5-HT2A (setting [2]), over 2000 nM.
With `Cn1cnc2ccc(OCCCCN3CCN(c4ccc(F)cc4)CC3)cc2c1=O` [Compound 29, 6-(4-(4-(4-fluorophenyl)piperazin-1-yl)butoxy)-3-methylquinazolin-4(3H)-one], the results for the Ki on D2 (setting [1]), on 5-HT1A and at 5-HT2A (setting [2]) were over 2000 nM, 259 nM and 347 nM, respectively.
Take `CN1CCc2ccc(OCCCCN3CCC(c4noc5cc(F)ccc45)CC3)cc2C1=O` [Compound 1, 7-(4-(4-(6-fluorobenzo[d]isoxazol-3-yl)piperidin-1-yl)butoxy)-2-methyl-3,4-dihydroisoquinolin-1(2H)-one]: the Ki on D2 (setting [1]) was determined as 12.5 nM; on 5-HT1A it was 15.8 nM; on 5-HT7 receptor, 12.5 nM; at 5-HT2A (setting [2]), 18.9 nM.
As for `Cn1c(=O)c2cc(OCCCN3CCN(c4cccc5sccc45)CC3)ccc2n(C)c1=O` [D, reference compound], the Ki at D2 (setting [1]) came out at 25.5 nM; on Histamine H1 receptor it was 154 nM; on 5-HT7 receptor, 606 nM.
For `CN1CCc2ccc(OCCCN3CCN(c4cccc5ccccc45)CC3)cc2C1=O` [Compound 6, 2-methyl-7-(3-(4-(naphthalen-1-yl)piperazin-1-yl)propoxy)-3,4-dihydroisoquinolin-1(2H)-one], the Ki was 134 nM on D2 (setting [1]), 46.6 nM at 5-HT1A and 57 nM at 5-HT2A (setting [2]).

Broadly, the Ki is a dissociation constant, usually derived from enzyme kinetics or from competition with a known ligand.
